Laboratory results taken from US8445006B2, “Biomolecular coating for implants” (Georgia Tech Research Corporation, priority 2006, dated 2013).

Assays:
[1] = molecular target: T1, α5β1 integrin (Mus musculus, UniProt P09055+P11688); assay: Crosslinking/extraction immunostaining of bound integrin; type: cell-based, murine; settings: 4 h on saturated ligand-functionalized SAMs
T1 construct: endogenous in cells; host or cells: MC3T3-E1 murine osteoblast-like cells
Method: Surfaces were prepared on either 6-well plate lids or 35 mm tissue culture dishes, and cells seeded at 75 cells/mm^2 in serum-containing media for 4 h at 37° C. For integrin staining, a cross-linking/extraction biochemical method that selectively isolates bound integrins was employed. Cells were washed, and 1.0 mM DTSSP (Pierce) was added for 15 min to cross-link ligated integrins. After quenching with 50 mM Tris, uncrosslinked cellular components were extracted in 0.1% SDS supplemented with protease inhibitors (350 μg/ml PMSF). Samples were then blocked in 5% FBS for 1 h and incubated with integrin-specific antibodies for 1 h at 37° C. Fluorochrome-labeled secondary antibodies were then incubated for 1 h at 37° C. Following washing, samples were mounted on slides with Gel/Mount mounting media (Biomeda, Foster City, Calif.). For staining of focal adhesions, cells were extracted in 0.5% Triton X-100 in ice-cold cytoskeleton buffer (50 mM NaCl, 3 mM MgCl2, 150 mM sucrose, 20 μg/ml aprotonin, 1 μg/ml leupeptin, 1 mM PMSF, 50 mM Tris, pH 6.8) for 2 min and fixed in cold 3.7% formaldehyde in DPBS for 5 min. Cultures were blocked, subsequently incubated in anti-vinculin monoclonal antibody (1:70 in 5% FBS) and fluorochrome-labeled secondary antibodies for 1 h, and samples mounted on slides.
Since MC3T3-E1 cells assemble robust focal adhesions containing clustered integrins and intracellular structural and signaling proteins, integrin binding and focal adhesion assembly on the engineered interfaces was examined by staining for different integrin subunits and vinculin, which localizes to focal adhesions. MC3T3-E1 cells were allowed to adhere on each saturated ligand-functionalized support for 4 h and integrin binding was evaluated via a crosslinking/extraction and immunostaining protocol, which isolates integrins ligated to the ligand. […] The crosslinking and extraction technique relies in coupling free amines on both the receptor and ligand. Since the tethered RGD has no free amine, the αvβ3 staining in the RGD surfaces is attributed to focal adhesions that were not completely extracted. […] Both surfaces assembled focal adhesions containing vinculin.

[2] = system: MC3T3-E1 cells; assay: Centrifugation cell adhesion assay on ligand-tethered SAMs; type: cell-based, murine; settings: for ADH50 (ligand density required for half-maximal adhesion): ligand tethered to SAMs, MC3T3-E1
Method: MC3T3-E1 murine immature osteoblast-like cells (Riken Cell Bank, Hirosawa, Japan) were used because of their expression of multiple integrins, including alpha5beta1, alpha2beta1, and alphaVbeta3. Cells were maintained at 37° C. in α-MEM supplemented with 10% FBS and 1% penicillin-streptomycin and passaged every 2-3 days via standard culture techniques.
Self-assembled monolayers (SAMs) of alkanethiols on gold were used to present well-defined, ordered surfaces with anchoring groups within a non-fouling background. Tri(ethylene glycol)-terminated alkanethiol (HS—(CH2)11—(OCH2CH2)3—OH; EG3) and carboxylic acid-terminated alkanethiol (HS—(CH2)11—(OCH2CH2)6—OCH2COOH; EG6-COOH) were previously synthesized and characterized. Gold-coated substrates were prepared by sequential deposition of titanium (100 Å) and gold (200 Å) films via an electron beam evaporator (Thermionics Laboratories, Hayward, Calif., 2×10^−6 Torr, 1 A/s) onto clean 6-well plate lids or glass coverslips. Mixed SAM surfaces were prepared on substrates by immersing in a 1.0 mM mixed solution of EG3/EG6-COOH thiols (4 h). Peptide ligands were tethered using standard peptide chemistry. Briefly, following washing in ethanol and ultrapure H2O, SAMs were incubated in 2.0 mM EDC and 5.0 mM NHS in 0.1 M 2-(N-morpho)-ethanesulfonic acid and 0.5 M NaCl (pH 6.0), and subsequently immersed in a 20 mM solution of 2-mercaptoethanol in deionized H2O. Adhesive ligands in PBS were then incubated on the activated supports for 30 min and the unreacted surface NHS esters were then quenched in 20 mM glycine. Finally, the surfaces were blocked in 1% heat-denatured bovine serum albumin (BSA) and then incubated overnight in DPBS to reduce nonspecific protein adsorption.
A modification of a centrifugation assay was used to apply controlled detachment forces to cells adhering to engineered surfaces. Multi-wells of engineered surfaces were created on gold-coated polystyrene plate lids using silicone gaskets (Grace Bio-Labs, Bend, Oreg.). Mixed SAMs were assembled and ligands tethered at varying densities. MC3T3-E1 cells were labeled with […] calcein-AM, a membrane-permeable green fluorescent dye, in 2 mM dextrose-DPBS for 30 min and resuspended in α-MEM with 10% FBS. Cells were seeded onto the surfaces at 200 cells/mm^2, and allowed to attach for 1 h at 37° C. For blocking antibody experiments, cells were incubated in the presence of function-perturbing antibodies (10 μg/ml) for 10 min with gentle agitation prior to cell seeding. Before centrifugation, cell images were taken using a Nikon TE-300 fluorescence microscope and Spot RT digital camera. Wells were then filled completely with dextrose-PBS, sealed, inverted, and centrifuged for 5 min at a prescribed speed on a Beckman Allegra 6 centrifuge (GH 3.8 rotor) to apply normal detachment forces. Media was then gently aspirated from the wells, and wells were refilled for post-spin image collection. Post/pre-spin cell ratios were determined by image analysis, and this adhesive fraction was plotted against ligand surface density to obtain cell adhesion profiles.

[3] = maximum ligand density, normalized to unblocked controls

T1 sequence (P11688 45-898 limits assumed): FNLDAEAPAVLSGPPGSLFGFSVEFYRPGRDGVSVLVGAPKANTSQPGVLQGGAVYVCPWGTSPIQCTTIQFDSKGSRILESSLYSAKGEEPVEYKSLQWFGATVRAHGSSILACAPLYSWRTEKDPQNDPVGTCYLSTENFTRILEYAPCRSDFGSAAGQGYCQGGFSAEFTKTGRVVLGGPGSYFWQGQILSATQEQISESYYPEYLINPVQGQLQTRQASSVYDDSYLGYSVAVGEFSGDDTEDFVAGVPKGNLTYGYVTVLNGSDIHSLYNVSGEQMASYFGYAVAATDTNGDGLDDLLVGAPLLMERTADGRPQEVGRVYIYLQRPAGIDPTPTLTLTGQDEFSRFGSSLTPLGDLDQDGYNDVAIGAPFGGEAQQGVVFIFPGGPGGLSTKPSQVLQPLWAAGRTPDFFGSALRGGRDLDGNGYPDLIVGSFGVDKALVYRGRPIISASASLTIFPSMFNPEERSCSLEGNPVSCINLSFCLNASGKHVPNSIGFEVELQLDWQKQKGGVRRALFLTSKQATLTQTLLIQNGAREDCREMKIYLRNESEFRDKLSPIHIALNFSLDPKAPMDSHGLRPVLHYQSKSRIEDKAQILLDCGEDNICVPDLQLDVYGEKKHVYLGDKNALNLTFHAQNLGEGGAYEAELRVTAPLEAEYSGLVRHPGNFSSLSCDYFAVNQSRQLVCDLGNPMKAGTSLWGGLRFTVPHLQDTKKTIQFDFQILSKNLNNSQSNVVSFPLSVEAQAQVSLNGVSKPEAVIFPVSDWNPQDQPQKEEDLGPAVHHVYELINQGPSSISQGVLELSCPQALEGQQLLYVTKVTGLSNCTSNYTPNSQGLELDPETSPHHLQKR
T1 sequence (P11688 899-1053 limits assumed): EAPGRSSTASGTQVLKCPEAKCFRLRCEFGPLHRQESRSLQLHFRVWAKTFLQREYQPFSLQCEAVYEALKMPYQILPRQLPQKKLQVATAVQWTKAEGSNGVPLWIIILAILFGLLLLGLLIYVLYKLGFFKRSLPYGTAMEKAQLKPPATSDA
T1 sequence (P09055 21-798): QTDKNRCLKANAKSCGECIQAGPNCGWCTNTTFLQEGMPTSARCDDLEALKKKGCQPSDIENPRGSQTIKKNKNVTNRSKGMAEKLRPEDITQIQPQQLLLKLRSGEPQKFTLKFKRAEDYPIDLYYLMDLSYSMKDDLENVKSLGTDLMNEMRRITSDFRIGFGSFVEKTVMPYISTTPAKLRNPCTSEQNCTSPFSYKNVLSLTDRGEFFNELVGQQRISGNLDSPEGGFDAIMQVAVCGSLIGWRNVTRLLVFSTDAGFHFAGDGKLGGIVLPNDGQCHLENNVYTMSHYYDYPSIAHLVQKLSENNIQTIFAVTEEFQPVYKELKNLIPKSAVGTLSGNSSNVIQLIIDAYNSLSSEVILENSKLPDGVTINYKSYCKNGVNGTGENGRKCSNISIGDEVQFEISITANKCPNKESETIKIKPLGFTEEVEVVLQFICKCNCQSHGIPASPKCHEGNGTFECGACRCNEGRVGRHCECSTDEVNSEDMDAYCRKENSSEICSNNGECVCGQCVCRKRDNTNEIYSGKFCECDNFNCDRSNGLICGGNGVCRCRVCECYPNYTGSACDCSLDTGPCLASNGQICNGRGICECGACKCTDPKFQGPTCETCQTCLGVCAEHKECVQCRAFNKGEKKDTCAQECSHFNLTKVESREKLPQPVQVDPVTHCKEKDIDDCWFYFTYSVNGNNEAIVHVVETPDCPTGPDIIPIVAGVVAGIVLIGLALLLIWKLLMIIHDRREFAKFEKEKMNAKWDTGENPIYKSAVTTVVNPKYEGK

Substance	bound α5β1 integrin staining [1]	ADH50 (ligand density required for half-maximal adhesion) [2] [fmol/cm^2]	adhesion with blocking antibodies against α5β1 integrin [2, 3]	reduction of adhesion by antibodies against β3 integrin subunit [2, 3]
GRGDSPC [RGD peptide, linear RGD oligopeptide purchased from BACHEM; primarily supports αvβ3-mediated adhesion, reference compound]	little staining for α5β1	2300	only slightly reduced adhesion	
FNIII7-10: monobiotinylated recombinant fibronectin fragment spanning the 7-10th type III repeats of fibronectin; α5β1 integrin ligand	robust, well-defined adhesive structures containing α5β1 integrins	70	reduced adhesion to background levels	did not alter adhesion significantly
